Earlier results in patent US20080167325A1, “VALACYCLOVIR COMPOSITIONS” (priority 2006, published 2008).

Columns and labels:
[1] = first-pass hepatic metabolism through enzymatic hydrolysis
[2] = compared with acyclovir

converted to the active compound, acyclovir, and L-valine [1]: ~99% | bioavailability [2]: much improved bioavailability
Structure (SMILES): CC(C)[C@H](N)C(=O)OCCOCn1cnc2c(=O)[nH]c(N)nc21 [Valacyclovir, L-valine, 2-[(2-amino-1,6-dihydro-6-oxo-9H-purin-9-yl)methoxy]ethyl ester]
metabolized by cytochrome P450 enzymes (cytochrome P450 enzymes): Neither valacyclovir nor acyclovir is metabolized
